Source: patent publication US20020034534A1, “System and method for delivering a therapeutic agent over an extended period of time in conjuction with a receptor loading dose of the therapeutic agent” (priority 1999, published 2002)

What was measured:
[1] = Naltrexone plasma pharmacokinetics from the literature and its reinterpretation; assay type: in vivo
Text: Phase II (RLD)—Days two to thirty. […] The higher serum levels of this phase serve two purposes. First, for the particular therapeutic agent chosen, the long-term maintenance dose releases drug slowly at a constant (zero order) rate. […] It has the disadvantage, however, that the plasma level will slowly rise until it reaches a plateau, which is referred to as steady state. The time to reach steady state is a function of the drug's half-life, a measure of the time it takes for half of the drug to be eliminated from the body. It takes approximately six half-lives to reach steady state for any drug. […] During this time it is essential that an additional source of drug be administered as a receptor loading dose to continue to saturate the drug receptors. A second reason for this loading dose, particularly for drugs used to treat addictions, is to prevent cravings and other withdrawal symptoms.
A period of approximately 3.3 half-lives is necessary to achieve a 90% receptor occupancy level.
Phase II (months 1 to 2) provides higher levels than the minimum needed to prevent narcotic highs. […] For pharmacokinetic reasons, the higher levels are also needed until the steady state distribution levels are reached through the slower maintenance dose.

[2] = test system: opiate receptors; settings: recommended dose of 50 mg taken orally; cited from earlier work

O=C1CC[C@@]2(O)[C@H]3Cc4ccc(O)c5c4[C@@]2(CCN3CC2CC2)[C@H]1O5 [naltrexone]
time to reach 90% receptor occupancy level ([1]; calculated as 3.3×72 hr at the maintenance rate): about 10 days
time to reach 98% occupancy ([1]; maintenance rate): about 20 days
steady state level ([1]; subcutaneous product, zero order rate of 0.56 mg/day): about 7.5 ng/ml
duration of complete blockage [2]: 24 h
